1 substance from US20010007657A1, “Compositions and methods for manipulating glial progenitor cells and treating neurological deficits” (priority 1997, published 2001) can be followed below.

One data set has as its system TGFα mRNA. Description: In situ hybridization of TGFα mRNA after nigral 6-OHDA lesion and/or striatal TGFα infusion. It counts as in vivo, rat. To be noted: unlesioned animals, striatal TGFα infusion two weeks, vs contralateral or normal striata. An excerpt:
(§1) Adult male Sprague-Dawley rats weighing 250-300 grams were obtained from Simonsen (Gilroy, Calif.) and assigned to one of five treatment groups: (1) striatal TGFα infusion, nigral 6-OHDA lesion (hereafter, “lesion”); (2) TGFα infusion, no lesion; (3) artificial cerebrospinal (aCSF) infusion, lesion; (4) aCSF infusion, no lesion; (5) no infusion, no lesion. Four to eight animals were used per experimental group. The animals were monitored after each surgical procedure until fully recovered and maintained at all other times in a temperature and humidity controlled vivarium.
(§2) Rats were anesthetized with 8 mg xylazine and 100 mg ketamine per kilogram body weight. […] The success and extent of 6-OHDA lesions were monitored by tyrosine hydroxylase (TH) mRNA in situ hybridization in the midbrain. TH is the rate-limiting enzyme in the dopamine synthetic pathway and is a common marker for dopamine-producing neurons. One animal with an incomplete lesion (retaining significant numbers of nigral TH-IR cells) was excluded from the study and is not included in the total number of animals.
(§3) Osmotic minipumps (model 2002, Alzet, Inc.) were implanted four to five weeks post-lesion. […] The minipump itself was placed subcutaneously in the interscapular region.
(§4) At the end of the infusion period, animals were sacrificed by decapitation. Their brains were quickly removed, frozen in isopentane at −20° C., and stored at −70° C. Coronal cryostat sections were cut at 20 μm and thaw-adhered to Vectabond™ (Vector Labs, Inc.) coated slides in ordered anterior-to-posterior rows. The sections were postfixed with 4% paraformaldehyde in 0.1 M phosphate buffer (pH 7.4) for one hour, rinsed in phosphate buffer and air dried. Sections were stored with desiccant at −20° C. until processed.
TGFα mRNA probes were generated from a 550 nucleotide XbaI/BamHI cDNA fragment from the 5′ end of rat TGFα subcloned into pGEM 7Zf (Promega, Inc.). Antisense and sense probes were transcribed with SP6 and T7 polymerases, respectively. […]

A further data set concerns EGF receptor mRNA. Description: In situ hybridization of EGF receptor mRNA after nigral 6-OHDA lesion and/or striatal TGFα infusion. The data set is classed as in vivo, rat.
Excerpt: as §1, §2, §3, §4
TGFα mRNA probes were generated from a 550 nucleotide XbaI/BamHI cDNA fragment from the 5′ end of rat TGFα subcloned into pGEM 7Zf (Promega, Inc.). Antisense and sense probes were transcribed with SP6 and T7 polymerases, respectively. Rat EGF receptor mRNA probes were produced from a 718 base pair BamHI/SphI insert from the 5′ end of the gene in pGEM 7Zf. Probes for rat TH were created using the 1.2 kb BamHI/EcoRI fragment subcloned into pGEM 7Zf. Antisense subclones for EGF receptor and TH were transcribed with T7 polymerase. Sense subclones for EGF receptor and TH were transcribed with SP6 polymerase. All probes were radiolabeled by transcription in the presence of [^35S]UTP (NEN Research Products, Inc.).
In situ nucleic acid hybridization was performed according to the method described by Simmons et al. 1989, supra). Parallel sections from experimental and control animals were hybridized overnight at 65° C. with sense or antisense probes at a concentration of 10^7 cpm/ml.

Data set [1] has as its system stem and neuroprogenitor cells in the SVZ. The experiment in a line: Morphological studies of proliferation, directed migration and differentiation induction (Example 3). It counts as in vivo, rat. An excerpt: In situ hybridization histochemistry: TGFα mRNA probes were generated from a 550 nucleotide XbaI/BamHI cDNA fragment from the 5′ end of rat TGFα, subcloned into pGEM 7Zf (Promega, Inc). Antisense and sense probes were transcribed with SP6 and T7 polymerases, respectively. Rat EGF receptor mRNA probes were produced from a 718 base pair BamHI/SphI insert from the 5′ end of the gene in pGEM 7Zf. Probes for rat TH were created using the […] BamHI/EcoRI fragment subcloned into pGEM 7Zf. Antisense subclones for EGF receptor and TH were transcribed with T7 polymerase. Sense subclones for EGF receptor and TH were transcribed with SP6 polymerase. All probes were radiolabeled by transcription in the presence of [35S]UTP (NEN Research, Inc). In situ nucleic acid hybridization was performed according to Simmons (1989) J. Histochem. 12:169-181). Parallel sections from experimental and control animals were hybridized overnight at 65° C. with sense or antisense probes at a concentration of […]. Adjacent sections from the same animals were hybridized to each of the probes so that direct comparison could be made of their anatomical distributions. […] After successful development of the autoradiography film, analysis and quantitation was done using MCID (Imaging Research, Inc).

For data set [2], the system named is neural precursor cells of the subependymal zone. Description: Periventricular cellular expansion and striatal ridge formation (thionin, silver staining, immunohistochemistry). The data set is classed as in vivo, rat. To be noted: three months after the TGFα infusion pump was removed.

“Also recorded” adds a separate entry of the source.

On to “TGFα: transforming growth factor alpha polypeptide, EGF-family growth factor that binds the EGF receptor; infused into rat brain”, for which the “TGFα mRNA hybridization in the infused striatum” value in the data set on TGFα mRNA was “unchanged”. The entries for the “rats with ridge of dense EGF receptor mRNA hybridization in ipsilateral striatum” value with EGF receptor mRNA (TGFα infusion/nonlesion group) and in the data set on EGF receptor mRNA (combined TGFα infusion/6-OHDA lesion group) were “one of six” and “five of the six”, respectively. Besides, the “EGF receptor mRNA hybridization in the ipsilateral subependymal region” value with EGF receptor mRNA (striatal TGFα infusion two weeks, lesioned and unlesioned) was “dramatically increased; also recorded: approximately doubled”. Further, the “expression of EGFr mRNA in the SVZ” value in data set [1] (6-OHDA lesion and TGF alpha infusion) was “significant increase”; in data set [1] (TGF alpha infusion, no 6-OHDA lesion), “significant increase”. The apomorphine-induced rotations entry in the data set on 6OHDA lesioned animals (animals receiving the TGFα infusions) was “significant reduction”. For the same substance, in the data set with 6OHDA lesioned animals (infusion 14 days after 6-OHDA lesion, 14-day striatal infusion, p<0.05), the “improvement in rotational behavior, TGFα versus aCSF-treated control animals” value came to 38%. Besides, the “animals not exhibiting rotational behavioral asymmetry following apomorphine” value in the data set with 6OHDA lesioned animals (infusion contemporaneous with 6-OHDA lesion, entire four-week period) was 10 of the 11. Besides, the “other motor behaviors (exploratory, consummatory behavior)” value in the data set with 6OHDA lesioned animals (rat, in vivo) was “did not appear to be adversely affected”. For the same substance, the “persistence of the ridge in the striatum” value in data set [2] was “still prominent”.
